# Measured values reported in patent US20240416143A1, “PHOTONIC ANTIMICROBIAL WOUND SURFACE DRESSING” (The General Hospital Corporation, priority 2021, published 2024).
# Legend:
# [1] = Solubility of menadione in aqueous solution; assay type: physicochemical
# Method: Thus, we dissolved the menadione in two conditions: in PBS containing either 1% DMSO or 1% DMSO/Tween80 at 400 μM. Tween 80 is a surfactant and the idea is to mix with the DMSO before to add to PBS is due to necessity to improve the solubility of menadione in aqueous solution. We measured the absorption spectrum in both conditions to analyze if there is any change in optical properties. The range of wavelength absorption of menadione was measured between 200-800 nm (see FIG. 12B) to choose the optimum wavelength of the light absorption spectra. […] The maximum wavelength of absorption found was 340 nm for both conditions. […] The molar absorptivity coefficient was compared in different wavelength according with the Table 1.
# MRSA biofilm = assay: Photoinactivation of 48-hour in vitro biofilms by adjuvant/antibiotic + antimicrobial blue light; assay type: cell-based, methicillin-resistant Staphylococcus aureus; settings: for Bacterial Log10 CFU/mL Reduction after menadione + aBL: MRSA USA 300 biofilm 48 h
# Method: (§1) The bacterial suspension was grown in a shaking incubator overnight in BHI broth. Cells were collected by centrifugation at 4,000 rpm for 5 minutes and suspended in PBS at a density of 10^6 CFU/mL. Then, the biofilms were grown for 48 hours (unless otherwise specified) in 96-well microtiter plates as described previously [Ref. 27], with a renewal of the media every 24 hours. Following the 48-hour biofilm growth, fresh 200 μL of PBS with or without menadione in different concentrations were added to the wells and the biofilms were incubated in the dark at 25° C. for 1 hour: 0, 0.5, 1, and 2 μg/mL for MRSA USA300, AF0001, IQ0064; 0, 1, 10, 30 and 50 μg/mL for P. aeruginosa PA01; and 0, 100, and 150 μg/mL for E. coli ATCC 25922. After that, the control and the menadione-treated biofilms were maintained without irradiation (“menadione/dark”). Simultaneously, the aBL was delivered to the other biofilm groups testing different power densities (50, 30, 15, and 10 mW/cm^2) while keeping the same radiant exposure of 250 J/cm^2. After the light exposure, the biofilms were carefully washed two times with PBS and 200 μL of PBS was added to each well. Then, the bacterial biofilms in each well were harvested by scratching with a sterile pipette tip and three wells of each group were pooled together in a 1.5 mL microcentrifuge tube. The total volume obtained, 600 μL (3 wells), was sonicated using a Branson 2510 Water Bath Sonicator (Marshall Scientific, LLC) for 5 minutes and the CFU was determined by 10-fold serial dilutions in PBS on BHI agar plates. CFU was counted after overnight incubation at 37° C. Experiments were performed in triplicate.
# A bacterial suspension was grown in a shaking incubator overnight in BHI broth. Cells were collected by centrifugation at 4,000 rpm for 5 minutes and suspended in PBS at a density of 10^6 CFU/mL. Then, the biofilms were grown for 48 hours in 96-well microtiter plates with a renewal of the media every 24 hours. Following the 48-hour biofilm growth, fresh 200 μL of PBS with the tetracyclines minocycline, doxycycline, and demeclocycline in different concentrations were added to the wells and the biofilms were incubated in the dark at 25° C. for 1 hour: 0, 0.25, 0.5, and 1 μg/mL for minocycline; 0, 0.5, 1, and 2 μg/mL for doxycycline; and 0, 0.5, 1, and 2 for demeclocycline. After that, the control and the tetracycline-treated biofilms were maintained without irradiation (“menadione/dark”). Simultaneously, the aBL (405 nm) was delivered to the other biofilm groups testing different power densities (50, 30 mW/cm^2) while keeping the radiant exposures of 50-250 J/cm^2. After the light exposure, the biofilms were carefully washed two times with PBS and 200 μL of PBS was added to each well. Then, the bacterial biofilms in each well were harvested by scratching with a sterile pipette tip and three wells of each group were pooled together in a 1.5 mL microcentrifuge tube. The total volume obtained, 600 μL (3 wells), was sonicated using a Branson 2510 Water Bath Sonicator (Marshall Scientific, LLC) for 5 minutes and the CFU/mL was determined by 10-fold serial dilutions in PBS on BHI agar plates. CFU was counted after overnight incubation at 37° C.
# E. coli biofilm = assay: as above; assay type: cell-based, Escherichia coli
# Method: as §1
# A bacterial suspension was grown in a shaking incubator overnight in BHI broth. Cells were collected by centrifugation at 4,000 rpm for 5 minutes and suspended in PBS at a density of 10^6 CFU/mL. Then, the biofilms were grown for 48 hours in 96-well microtiter plates with a renewal of the media every 24 hours. Following the 48-hour biofilm growth, fresh 200 μL of PBS with the tetracyclines minocycline, doxycycline, and demeclocycline in different concentrations were added to the wells and the biofilms were incubated in the dark at 25° C. for 1 hour: 0, 0.25, 0.5, and 1 μg/mL for minocycline; 0, 0.5, 1, and 2 μg/mL for doxycycline; and 0, 0.5, 1, and 2 for demeclocycline. After that, the control and the tetracycline-treated biofilms were maintained without irradiation (“menadione/dark”). […] The total volume obtained, 600 μL (3 wells), was sonicated using a Branson 2510 Water Bath Sonicator (Marshall Scientific, LLC) for 5 minutes and the CFU/mL was determined by 10-fold serial dilutions in PBS on BHI agar plates. CFU was counted after overnight incubation at 37° C.
# [2] = tested on: MRSA biofilms in ex-vivo porcine skin; assay: Photoinactivation of biofilms in ex vivo porcine partial thickness wounds by menadione + aBL; assay type: cell-based, methicillin-resistant Staphylococcus aureus
# Method: (§2) Skin was handled and sanitized with 70% isopropanol solution after hair shaving. The explants and inner wounds were created using a 12 mm and 4 mm biopsy punches respectively. The explants were placed in 12 wells plates using a (8 μm pore) inserts (Corning™ Falcon™). 1 mL of DMEM media was added to each well in the plate before the insert. After 24 hours, the inner wounds in the explants were inoculated with 20 μL of 10^8 CFU/mL of bacterial solution. After that, the explants were incubated at 37° C. and 5% CO2 for 48 hours to ensure the growth of a mature bacterial biofilm. The inner wounds of the explants were replenished daily with fresh BHI media to ensure that the wounds are hydrated.
# (§3) 48 hours following the inoculation, mature monobacterial biofilms of MRSA, P. aeruginosa, and E. coli were obtained with 8.00 log10 CFU/g per wound bed on each explant. MRSA biofilms in explant were reduced by 0.81 log10 CFU/g after the treatment of just aBL 250 J/cm^2 (50 mW/cm^2). However, MRSA biofilms in ex-vivo porcine skin were reduced by up to 4.18 log10 CFU/g when treated with aBL combined with menadione (200 μg/mL). For MRSA biofilms, the log reduction of mature monobacterial biofilm increased as the menadione concentration increased (see FIGS. 16A-16B). […]
# [3] = tested on: P. aeruginosa biofilms in porcine explants; assay: as above; assay type: cell-based, Pseudomonas aeruginosa
# Method: as §2, §3
# S. aureus MN8 = S. aureus MN8 cultured aerobically vs anaerobically; cited from earlier work
# NLRP3 inflammasome = NLRP3 inflammasome (Homo sapiens, UniProt Q96P20); settings: cited from earlier work
# NLRP3 inflammasome, sequence (Q96P20 whole entry): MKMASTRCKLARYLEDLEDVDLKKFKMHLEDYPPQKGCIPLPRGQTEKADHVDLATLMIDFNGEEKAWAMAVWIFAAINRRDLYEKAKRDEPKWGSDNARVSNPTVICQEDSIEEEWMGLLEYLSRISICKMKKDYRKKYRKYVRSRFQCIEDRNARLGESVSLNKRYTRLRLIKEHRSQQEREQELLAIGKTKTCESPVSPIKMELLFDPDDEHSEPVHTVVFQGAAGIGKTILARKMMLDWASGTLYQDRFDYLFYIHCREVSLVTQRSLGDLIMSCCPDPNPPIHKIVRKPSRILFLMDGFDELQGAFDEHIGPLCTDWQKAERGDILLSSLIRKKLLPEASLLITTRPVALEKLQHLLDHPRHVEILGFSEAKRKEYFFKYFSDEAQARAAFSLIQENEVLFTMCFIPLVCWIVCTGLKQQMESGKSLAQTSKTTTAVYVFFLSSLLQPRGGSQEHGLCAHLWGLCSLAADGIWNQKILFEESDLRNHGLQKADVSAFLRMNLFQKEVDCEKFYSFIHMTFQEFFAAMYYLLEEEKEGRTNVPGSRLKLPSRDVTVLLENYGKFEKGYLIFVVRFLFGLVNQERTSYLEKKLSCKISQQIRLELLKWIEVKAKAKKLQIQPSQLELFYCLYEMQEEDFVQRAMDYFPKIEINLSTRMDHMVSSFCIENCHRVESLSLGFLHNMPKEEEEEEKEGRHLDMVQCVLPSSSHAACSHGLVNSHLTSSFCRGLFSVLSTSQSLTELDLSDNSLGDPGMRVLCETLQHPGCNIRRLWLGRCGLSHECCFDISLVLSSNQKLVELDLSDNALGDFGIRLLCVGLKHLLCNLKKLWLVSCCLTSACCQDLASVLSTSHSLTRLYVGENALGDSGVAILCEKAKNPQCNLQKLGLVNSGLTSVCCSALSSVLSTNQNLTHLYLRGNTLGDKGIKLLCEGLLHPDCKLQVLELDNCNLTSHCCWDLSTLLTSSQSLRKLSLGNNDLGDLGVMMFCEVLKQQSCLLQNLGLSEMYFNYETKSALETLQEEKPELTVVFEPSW
smiles,measurement,setting,value
"CC1=CC(=O)c2ccccc2C1=O [menadione, 2-methyl-1,4-naphthoquinone]",solubility in aqueous solution,[1]; PBS with 1% DMSO/Tween80 vs 1% DMSO,best solubility
same,solubility in water,[1]; water,not soluble in water
same,biofilm reduction by menadione without irradiation,"MRSA biofilm; 48 h biofilm, dark",< 1 log killing
same,biofilm killed by menadione plus aBL,"MRSA biofilm; 48 h biofilm, 1 μg/mL menadione + aBL 250 J/cm^2 (50 mW/cm^2)",4.85 log10 CFU/mL
same,biofilm killed by menadione plus aBL,"MRSA biofilm; 48 h biofilm, 1 μg/mL menadione + aBL 250 J/cm^2 at 15 mW/cm^2",3.01 log10 CFU/mL
same,Bacterial Log10 CFU/mL Reduction after menadione + aBL,"MRSA biofilm; 10 mW/cm^2, 250 J/cm^2, 6 hours 56 minutes",−1.91 Log10 CFU/mL
same,Bacterial Log10 CFU/mL Reduction after menadione + aBL,"MRSA biofilm; 15 mW/cm^2, 250 J/cm^2, 4 hours 37 minutes",−3.01 Log10 CFU/mL
same,Bacterial Log10 CFU/mL Reduction after menadione + aBL,"MRSA biofilm; 30 mW/cm^2, 250 J/cm^2, 2 hours 18 minutes",−2.28 Log10 CFU/mL
same,Bacterial Log10 CFU/mL Reduction after menadione + aBL,"MRSA biofilm; 50 mW/cm^2, 250 J/cm^2, 1 hours 23 minutes",−4.85 Log10 CFU/mL
same,Bacterial Log10 CFU/mL Reduction after menadione + aBL,MRSA biofilm; power density 0 mW/cm^2,0 Log10 CFU/mL
same,biofilm reduction by menadione without irradiation,"E. coli biofilm; 48 h biofilm, dark",< 1 log killing
same,biofilm eradicated by menadione plus aBL,"E. coli biofilm; 48 h biofilm, 100 μg/mL menadione + aBL 250 J/cm^2 (50 mW/cm^2)",4.8 log10 CFU/mL
same,enhancement of killing in comparison with aBL alone,"E. coli biofilm; 48 h in vitro biofilm, menadione + aBL",1 log-fold
same,biofilm reduction by menadione in the absence of aBL,"[2]; ex vivo porcine explants, no aBL",no effect of biofilm reduction
same,biofilm reduction by aBL combined with menadione,"[2]; ex vivo porcine wound, menadione 200 μg/mL + aBL 250 J/cm^2 (50 mW/cm^2)",up to 4.18 log10 CFU/g
same,biofilm reduction by menadione and blue light,[3]; 50 μg/mL menadione + blue light,5.27 log10 CFU/mL
same,biofilm reduction by menadione in the absence of aBL,[3]; no aBL,no effect of biofilm reduction
same,"bactericidal activity, aerobic vs anaerobic culture",S. aureus MN8,4 fold
same,inhibition of NLRP3 inflammasome,NLRP3 inflammasome,"selective, potent inhibitor"
